Results from US5468758A, “Crystalline forms of endo-2,3-dihydro-N-(8-methyl)-8-azabicyclo[3.2.1]oct-3-yl)-2-oxo-1H-benz imidazole-1-carboxamides” (Boehringer Ingelheim Italia S.p.A., priority 1992, dated 1995).
Where a name gives a salt, the structure may show the parent alone.

How the values were obtained:
Type in all cases: physicochemical
[1] = Moisture sorption/desorption studies (hygrostat, storage at different temperatures and relative humidity); parameters: water content (Table VI): unit not given here; conditions: for water content (Table VII): 11.2% RH, % on the weight of compound 1b
Experimental: The determination of the sorption isotherms was carried out in a hygrostat.
At suitable intervals, the sample was weighed by means of a sample balance. The atmosphere in the hygrostat and therefore around the sample of compound 1a (1b) and 2a (2b) was conditioned and kept by a saturated solutions of a suitable salt:
Na Cl saturated solution 75.3% RH/25° C. 74.8% RH/37° C.
KNO3 saturated solution 93.7% RH/25° C. 90.0% RH/37° C.
At the end of the experiment, after completing the hysteresis, that is the adsorption--desorption cycle of humidity, the compound was assayed for the title and degradation products by TLC and HPLC, the physical state by DSC and water content by TGA.

[2] = Long-term real time stability tests in tablets and capsules
Text: (§1) Drug stability in these final compositions may be measured in accelerated stability tests or in long term real time stability tests. In accelerated stability tests, the above pharmaceutical compositions are exposed at high temperatures at different degrees of relative humidity for a period of time. Such tests are considered to be indicative of the stability of the composition at normal conditions. In long term real time stability studies the final compositions are exposed to normal conditions of storage at ambient temperatures at different degrees of relative humidity.
Tablets and capsules are packaged in PVC/PVDC blister with aluminium foil

[3] = Accelerated stability tests in tablets and capsules
Text: as §1
(*)according to H. Leven Berger Pharm. Act. Helv. 50 (1975) 88-91 it is
equivalent to 2 years storage at room temperature. Tablets and capsules
are packaged in PVC/PVDC blister with aluminium foil.
(*)according to "Guidelines for stability studies for Human Drugs and
Biologics" (1987) (USA/FDA) it is equivalent to 2 years at room
temperature. Tablets and capsules are packaged in PVC/PVDC blister with […]

[4] = Milling studies (FRITSCH Pulverisette 14 Rotor Speed Mill)
Experimental: The milling process was performed by the FRITSCH Pulverisette 14 Rotor Speed Mill supplied with circular sieve stainless steel with trapezoidal 0.080 mm diameter openings. The samples were passed through the mill twice at 20.000 rpm motor speed. The sample is assayed for title and degradation products by TLC and HPLC, physical state by DSC, water content by TGA, particle size distribution by Mercury Instrusion Porosimetry. The mi 11ed compounds are formulated in capsules and tablets at very low dose level (0.5 mg) by direct mixing and direct compression manufacturing method, respectively.

[5] = Water loss on desiccation under vacuum; conditions: between room temperature and 60° C. under vacuum, most preferably 40° C., 0.1 mm Hg, 24 hours; in words
Experimental: Compounds 2a and 2b may be prepared by dissolving the compounds 1a and 1b, as free base, in a hot aqueous solvent, preferably a hot aqueous alkanol, by adding the required amount of gaseous hydrogen chloride, filtering the resulting solution and letting it cool to room temperature. In a preferred embodiment of the process according to the invention, compound 2a is prepared by using, as an hot aqueous alkanol, hot 85% aqueous ethanol. The crystals of compound 2a may be collected by vacuum filtration and are washed with a small amount of aqueous ethanol. In a preferred embodiment of the process according to the invention, compound 2b is prepared by using, as an hot aqueous alkanol, hot 95% aqueous isopropanol. The crystals of compound 2b may be collected by vacuum filtration and are washed with a small amount of aqueous isopropanol. […] Water content may be measured by usual techniques such as the Karl Fischer test. Alternatively, compounds 2a and 2b may be conveniently prepared by dissolving the anhydrous form of compounds 1a and 1b, as hydrochloride, in hot aqueous ethanol, preferably 85% ethanol (respectively in hot aqueous isopropanol, preferably 95% isopropanol) and allowing to cool the solution at room temperature; crystals of compound 2 a (respectively 2b), separated from the cooled solution, are collected by vacuum filtration and manipulated as previously described. […]

CCn1c(=O)n(C(=O)N[C@H]2C[C@H]3CC[C@@H](C2)N3C)c2ccccc21 [Compound 2b, Endo-3-ethyl-2,3-dihydro-N-(8-methyl-8-azabicyclo-[3.2.1]oct-3-yl)-2-oxo-1H-benzimidazole-1-carboxamide, hydrochloride monohydrate]
stability in condition of storage [1]: stable
water content in conditions of extreme dryness ([1]; 11 RH, 37° C., in words): not affected
water content (Table VII) ([1]; 37° C., 1 h): 5.00%
water content (Table VII) ([1]; 37° C., 2 h): 4.85%
water content (Table VII) ([1]; 37° C., 4 h): 4.80%
water content (Table VII) ([1]; 37° C., 6 h): 4.70%
water content (Table VII) ([1]; 37° C., 6 days): 4.70%
water content (Table VII) ([1]; 37° C., time 0): 5.02%
water content (Table VI) ([1]; 37° C., 49.2% RH, 2 h, hydrochloride monohydrate): 5.03
water content (Table VI) ([1]; 37° C., 49.2% RH, 4 h, hydrochloride monohydrate): 5.04
water content (Table VI) ([1]; 37° C., 49.2% RH, 6 h, hydrochloride monohydrate): 5.00
water content (Table VI) ([1]; 37° C., 49.2% RH, 1 d, hydrochloride monohydrate): 5.00
water content (Table VI) ([1]; 37° C., 49.2% RH, 4 d, hydrochloride monohydrate): 5.04
water content (Table VI) ([1]; 37° C., 49.2% RH, 10 d, hydrochloride monohydrate): 4.95
water content (Table VI) ([1]; 37° C., 49.2% RH, 30 d, hydrochloride monohydrate): 5.02
water content (Table VI) ([1]; 37° C., 49.2% RH, time 0, hydrochloride monohydrate): 5.00
water content (Table VI) ([1]; 37° C., 74.8% RH, 2 h, hydrochloride monohydrate): 5.05
water content (Table VI) ([1]; 37° C., 74.8% RH, 4 h, hydrochloride monohydrate): 5.05
water content (Table VI) ([1]; 37° C., 74.8% RH, 6 h, hydrochloride monohydrate): 5.07
water content (Table VI) ([1]; 37° C., 74.8% RH, 1 d, hydrochloride monohydrate): 5.07
water content (Table VI) ([1]; 37° C., 74.8% RH, 4 d, hydrochloride monohydrate): 5.07
water content (Table VI) ([1]; 37° C., 74.8% RH, 10 d, hydrochloride monohydrate): 4.97
water content (Table VI) ([1]; 37° C., 74.8% RH, 30 d, hydrochloride monohydrate): 5.00
water content (Table VI) ([1]; 37° C., 74.8% RH, time 0, hydrochloride monohydrate): 5.00
moisture absorption ([1]; different temperatures and relative humidity, in words, hydrochloride monohydrate): do not absorb moisture
stability in tablets and capsules [2]: better stability
stability in tablets and capsules [3]: better stability
particle size reduction (milling efficiency) ([4]; Mercury Porosimetry Analysis, in words): same rank order
humidity content ([4]; after milling, hydrochloride monohydrate): 4.8%
loss of water content on desiccation [5]: without any appreciable loss of water content
